# Tested on: PBMC (polyclonal gluten-specific T cells) of paediatric and adult CD patients
# Assay: IFN-γ ELISpot of PBMC after 3 day oral wheat challenge (SFU, % of maximal peptide response, dominance scores, EC50; Examples 5-6)
# Type: cell-based, human
# Settings: for Cross-reactive T cell response: following wheat challenge; for IFN-γ ELISpot response: after oral wheat challenge
# [1] = patient A, 11-17 yrs, cut-off 10 SFU
# [2] = patient E, H, 11-17 yrs, cut-off 10 SFU
# [3] = patient F, 11-17 yrs, cut-off 10 SFU
# [4] = patient G, 11-17 yrs, cut-off 10 SFU
# [5] = patient H (HLA-DQ2.5 homozygote), 3-5yrs, cut-off 10 SFU
# [6] = patient H, 11-17 yrs, cut-off 10 SFU
# [7] = patient ID not given, 11-17 yrs, cut-off 10 SFU
# [8] = patient ID not given, max peptide 95 SFU
# [9] = patient N, 3-5yrs, cut-off 10 SFU
# [10] = patient P, 11-17 yrs, cut-off 21.6 SFU
# [11] = patient Q, 11-17 yrs, cut-off 10 SFU
# [12] = patient U, H, 11-17 yrs, cut-off 10 SFU
# [13] = patient V, 6-10 yrs, cut-off 10 SFU
# [14] = patient Y, 6-10 yrs, cut-off 10 SFU
# [15] = patient eleven, 6-10 yrs, cut-off 10 SFU
# [16] = patient eleven, max peptide 57 SFU
# [17] = patient four, 3-5yrs, cut-off 10 SFU
# [18] = patient seven, 6-10 yrs, cut-off 10.5 SFU
# [19] = patient ten, 3-5yrs, cut-off 10 SFU
# [20] = patient ten, max peptide 14.5 SFU
# [21] = patient three, 6-10 yrs, cut-off 10.5 SFU
# [22] = patient twelve, 11-17 yrs, cut-off 10 SFU
# [23] = patient two, 3-5yrs, cut-off 10 SFU
sequence,measurement,setting,value
QPFPQPEQPTPIQ,Cross-reactive T cell response,"subject A, 11-17yrs",6 SFU
same,Significant response as a percentage of maximal peptide SFU,"subject D, 11-17yrs",′′ (21-40% = ′′)
same,Cross-reactive T cell response,"subject D, 11-17yrs",11 SFU
same,Significant response as a percentage of maximal peptide SFU,"subject E, 11-17yrs",′′ (21-40% = ′′)
same,Cross-reactive T cell response,"subject E, 11-17yrs",63 SFU
same,Cross-reactive T cell response,"subject F, 11-17yrs",73 SFU
same,Cross-reactive T cell response,"subject G, 11-17yrs",1 SFU
same,Cross-reactive T cell response,subject H,1 SFU
same,Cross-reactive T cell response,subject I (3-5yrs/6-10yrs part),0 SFU
same,Significant response as a percentage of maximal peptide SFU,subject J,′′′ (41-70% = ′′′)
same,Cross-reactive T cell response,subject J (3-5yrs/6-10yrs part),86 SFU
same,Cross-reactive T cell response,subject K (3-5yrs/6-10yrs part),7 SFU
same,Significant response as a percentage of maximal peptide SFU,"subject P, 11-17yrs",′′ (21-40% = ′′)
same,Cross-reactive T cell response,"subject P, 11-17yrs",23 SFU
same,Significant response as a percentage of maximal peptide SFU,"subject Q, 11-17yrs",′′′ (41-70% = ′′′)
same,Cross-reactive T cell response,"subject Q, 11-17yrs",39 SFU
same,Significant response as a percentage of maximal peptide SFU,"subject T, 11-17yrs",′′′ (41-70% = ′′′)
same,Cross-reactive T cell response,"subject T, 11-17yrs",61 SFU
same,Significant response as a percentage of maximal peptide SFU,"subject U, 11-17yrs",′′ (21-40% = ′′)
same,Cross-reactive T cell response,"subject U, 11-17yrs",21 SFU
same,Cross-reactive T cell response,subject V (3-5yrs/6-10yrs part),5 SFU
same,Cross-reactive T cell response,subject W (3-5yrs/6-10yrs part),0 SFU
same,Cross-reactive T cell response,subject Y (3-5yrs/6-10yrs part),4 SFU
same,Significant response as a percentage of maximal peptide SFU,subject five,+ (>70% = +)
same,Cross-reactive T cell response,subject five (3-5yrs/6-10yrs part),38 SFU
same,Cross-reactive T cell response,"subject nine, 11-17yrs",2 SFU
same,Cross-reactive T cell response,subject seven (3-5yrs/6-10yrs part),6 SFU
same,Significant response as a percentage of maximal peptide SFU,subject six,+ (>70% = +)
same,Cross-reactive T cell response,subject six (3-5yrs/6-10yrs part),12 SFU
same,Cross-reactive T cell response,subject ten (3-5yrs/6-10yrs part),8 SFU
same,Significant response as a percentage of maximal peptide SFU,subject two,′′ (21-40% = ′′)
same,Cross-reactive T cell response,subject two (3-5yrs/6-10yrs part),20 SFU
PEQPFPEQPEQPF,IFN-γ ELISpot response,[1],2 SFU
same,IFN-γ ELISpot response,[2],14 SFU
same,Significant response as percentage of maximal peptide SFU,"patient E, max peptide 224 SFU",(6-10% = ^)
same,IFN-γ ELISpot response,[3],2 SFU
same,IFN-γ ELISpot response,[4],2 SFU
same,IFN-γ ELISpot response,[5],4 SFU
same,IFN-γ ELISpot response,[6],9 SFU
same,IFN-γ ELISpot response,[7],15 SFU
same,Significant response as percentage of maximal peptide SFU,[8],′ (11-20% = ′)
same,Significant response as percentage of maximal peptide SFU,"patient J, max peptide 196 SFU",′ (11-20% = ′)
same,Significant response as percentage of maximal peptide SFU,"patient K, max peptide 53 SFU",′′ (21-40% = ′′)
same,IFN-γ ELISpot response,[9],0 SFU
same,IFN-γ ELISpot response,[10],10 SFU
same,IFN-γ ELISpot response,[11],11 SFU
same,Significant response as percentage of maximal peptide SFU,"patient Q, max peptide 97 SFU",′ (11-20% = ′)
same,IFN-γ ELISpot response,[12],5 SFU
same,IFN-γ ELISpot response,[13],3 SFU
same,IFN-γ ELISpot response,[14],2 SFU
same,IFN-γ ELISpot response,[15],12 SFU
same,Significant response as percentage of maximal peptide SFU,[16],′′ (21-40% = ′′)
same,IFN-γ ELISpot response,[17],4 SFU
same,Significant response as percentage of maximal peptide SFU,"patient nine, max peptide 10 SFU",+ (>70% = +)
same,IFN-γ ELISpot response,[18],5 SFU
same,IFN-γ ELISpot response,[19],11 SFU
same,Significant response as percentage of maximal peptide SFU,[20],+ (>70% = +)
same,IFN-γ ELISpot response,[21],24 SFU
same,IFN-γ ELISpot response,[22],1 SFU
same,IFN-γ ELISpot response,[23],9 SFU
LQPFPQPELPYPQPQ,IFN-γ ELISpot response,[1],2.5 SFU
same,Significant response as percentage of maximal peptide SFU,"patient D, max peptide 30.5 SFU",+ (>70% = +)
same,IFN-γ ELISpot response,[2],152 SFU
same,Significant response as percentage of maximal peptide SFU,"patient E, max peptide 224 SFU",′′′ (41-70% = ′′′)
same,IFN-γ ELISpot response,[3],166.5 SFU
same,Significant response as percentage of maximal peptide SFU,"patient F, max peptide 178 SFU",+ (>70% = +)
same,IFN-γ ELISpot response,[4],10 SFU
same,Significant response as percentage of maximal peptide SFU,"patient G, max peptide 15 SFU",′′′ (41-70% = ′′′)
same,IFN-γ ELISpot response,[5],31 SFU
same,IFN-γ ELISpot response,[6],8 SFU
same,IFN-γ ELISpot response,[7],66.5 SFU
same,Significant response as percentage of maximal peptide SFU,[8],′′′ (41-70% = ′′′)
same,Significant response as percentage of maximal peptide SFU,"patient J, max peptide 196 SFU",′′′ (41-70% = ′′′)
same,Significant response as percentage of maximal peptide SFU,"patient K, max peptide 53 SFU",′′ (21-40% = ′′)
same,Significant response as percentage of maximal peptide SFU,"patient M, max peptide 48 SFU",′′′ (41-70% = ′′′)
same,IFN-γ ELISpot response,[9],5.5 SFU
same,IFN-γ ELISpot response,[10],41.5 SFU
same,Significant response as percentage of maximal peptide SFU,"patient P, max peptide 64 SFU",′′′ (41-70% = ′′′)
same,IFN-γ ELISpot response,[11],67.5 SFU
same,Significant response as percentage of maximal peptide SFU,"patient Q, max peptide 97 SFU",′′′ (41-70% = ′′′)
same,IFN-γ ELISpot response,[12],45 SFU
same,Significant response as percentage of maximal peptide SFU,"patient U, max peptide 81 SFU",′′′ (41-70% = ′′′)
same,IFN-γ ELISpot response,[13],30 SFU
same,Significant response as percentage of maximal peptide SFU,"patient V, max peptide 35 SFU",+ (>70% = +)
same,IFN-γ ELISpot response,[14],10.5 SFU
same,Significant response as percentage of maximal peptide SFU,"patient Y, max peptide 16 SFU",′′′ (41-70% = ′′′)
same,Significant response as percentage of maximal peptide SFU,"patient Z, max peptide 13 SFU",+ (>70% = +)
same,Significant response as percentage of maximal peptide SFU,"patient eight, max peptide 12 SFU",+ (>70% = +)
same,IFN-γ ELISpot response,[15],57 SFU
same,Significant response as percentage of maximal peptide SFU,[16],+ (>70% = +)
same,Significant response as percentage of maximal peptide SFU,"patient five, max peptide 48 SFU",+ (>70% = +)
same,IFN-γ ELISpot response,[17],40.5 SFU
same,Significant response as percentage of maximal peptide SFU,"patient one, max peptide 16.5 SFU",+ (>70% = +)
same,IFN-γ ELISpot response,[18],8 SFU
same,IFN-γ ELISpot response,"patient six, 3-5yrs, cut-off 10 SFU",13 SFU
same,Significant response as percentage of maximal peptide SFU,"patient six, max peptide 13 SFU",+ (>70% = +)
same,IFN-γ ELISpot response,[19],14 SFU
same,Significant response as percentage of maximal peptide SFU,[20],+ (>70% = +)
same,IFN-γ ELISpot response,[21],99.5 SFU
same,IFN-γ ELISpot response,[22],27 SFU
same,IFN-γ ELISpot response,[23],29 SFU
same,Significant response as percentage of maximal peptide SFU,"patient two, max peptide 60 SFU",′′′ (41-70% = ′′′)
